Test results reported in patent US20030064380A1, “Anergy-regulated molecules” (The Center For Blood Research, Inc., priority 2001, published 2003).

Legend:
caspase-3 = assay: Western blotting of ionomycin-treated T cells; assay type: cell-based, murine
Procedure: Total cellular extracts were prepared by boiling cell pellets directly in SDS containing loading buffer to prevent proteolysis during cell lysis. Antibodies against caspase-3 (Santa Cruz) and active caspase-3 (Cell Signaling) were used. The polyclonal antibody 67.1 against NFAT1 has been described (Okamura et al., (2000) Mol. Cell. 6: 539-550).
Of particular interest was the fact that several of the ionomycin-induced genes encoded proteins involved (or potentially involved) in protein degradation. Candidate genes in this category included caspase-3, SOCS-2 and Traf5 (FIG. 6B). Caspase-3 is an enzyme for which commercial reagents are readily available. Tests were conducted to determine whether caspase-3 was activated and functional in ionomycin-pretreated T cells. […] Further work will be necessary to establish whether proteolysis occurs in specific intracellular compartments relevant to TCR signal transduction or whether other signaling proteins are substrates for proteolysis in anergic cells.

D5 T cells = assay: proliferation assay (3H-thymidine) of D5 T cells after ionomycin pretreatment; assay type: cell-based, murine
Procedure: D5 or primary T cells were stimulated with APC and antigen and pulsed for 24 hours with 10 μCi/ml ^3H-thymidine. DNA was collected using a cell harvester and the amount of radioactivity incorporated was measured in a β-counter.
The murine antigen-specific Th1 clone D5 was used to set up the model of clonal anergy developed by Schwartz and coworkers (Schwartz, (1996) J. Exp. Med. 184: 1-8).

Th1 cells = assay: cytokine mRNA induction in primary Th1 cells after tolerising pretreatment; assay type: cell-based, mice
Procedure: The murine Th1 cell clone D5 (Ar-5) was cultured as previously described (Agarwal and Rao, (1998) Immunity 9: 765-775). Primary CD4+T cells were isolated from lymph nodes and spleen of NFAT1−/− or wild type DO11.10 transgenic mice using magnetic beads (Dynal), and differentiated in vitro by stimulating for one week with irradiated APC and 1 μg/ml OVA as previously described (Agarwal and Rao, (1998) Immunity 9: 765-775). Jurkat and Phoenix Ecotropic cells were cultured in Dulbecco's modified Eagle's medium supplemented with 10% fetal calf serum, 10 mM HEPES and 2 mM glutamine.
Total cellular RNA was purified from resting cells or cells stimulated with APC and antigen or anti-CD3 plus anti-CD28 for 4 h, using Ultraspec reagent (Biotecx) and analyzed using the RiboQuant multiprobe RNase protection kit and specific multi-set probes (Pharmingen) according to the manufacturer's instructions. Jurkat cells were transfected by electroporation in serum-free medium with pulses of 250 V and 960 μF with […] of pEGFPN1 (Clontech) or pNLS-NFAT1 (ST2+5+8) (Okamura et al., (2000) Mol. Cell. 6: 539-550). RNA from transiently transfected Jurkat cells was obtained after selecting transfected cells for expression of a cotransfected murine CD4 plasmid using magnetic beads (Dynal).
Thus the net effect of a tolerising stimulus on T cells is to skew the cytokine response towards production of the immunosuppressive cytokine […], while down-regulating production of multiple other cytokines and chemokines associated with a productive immune response.
The anergised cells were fully responsive to PMA and ionomycin, stimuli which bypass the membrane-proximal steps of TCR signal transduction.

[1] = test system: NFAT, AP-1 and NFκB DNA-binding activity; assay: electrophoretic mobility shift assay of nuclear extracts of stimulated Th1 cells; assay type: cell-based
Procedure: Nuclear extracts were prepared from Th1 cells, unstimulated or stimulated for 60 minutes with 500 nM ionomycin or 20 nM PMA plus 500 nM ionomycin. Binding reactions were performed as previously described (Macian et al., (2000) EMBO J. 19: […]) using NFAT, AP-1 and NF-KB specific probes (Goldfeld et al., (1993) J. Exp. Med. 178: 1365-1379).

D5 and Th1 cells = assay: gene transcription profiles of ionomycin-induced genes (FIGS. 6B, 7B), Affymetrix arrays and real-time RT-PCR; assay type: cell-based, murine
Procedure: D5 or primary T cells from NFAT1−/− or wild type DO11.10 transgenic mice were stimulated for 2, 6 or 16 hours with 500 nM ionomycin, 20 nM PMA plus 500 nM ionomycin, or 1 μM CsA plus 500 nM ionomycin. Total RNA was isolated with an RNeasy kit (QIAGEN). Ten μg of total RNA was quantitatively amplified and biotin-labeled as described (Byrne et al., (2000) “Preparation of mRNA for Expression Monitoring” Current Protocols in Molecular Biology (John Wiley & Sons, Inc.) pp. 22.22.21-22.22.13). Hybridization to GeneChips® (Affymetrix) displaying probes for 11,000 mouse genes/ESTs was performed at 40° C. overnight in a mix that included 10 μg fragmented RNA, 6× SSPE, 0.005% Triton X-100 and 100 μg/ml herring sperm DNA in a total volume of 200 μl. Chips were washed, stained with SA-PE and read using an Affymetrix GeneChip® scanner and accompanying gene expression software. […]
Total RNA was prepared from resting or stimulated T cells using Ultraspec reagent (Biotecx). cDNA was synthesized using oligo-dT primers and Superscript polymerase (Invitrogen) following the manufacturer's recommendations. Quantitative real-time PCR was performed in an I-Cycler (BioRad) using a SYBR Green PCR kit from Applied Biosystems and specific primers to amplify 100-200 bp fragments from the different genes analyzed. A threshold was set in the linear part of the amplification curve (fluorescence=f[cycle number]) and the number of cycles needed to reach it calculated for every gene. […]
Among them were many ESTs with no assigned function; a single cytokine gene, M-CSF; genes in other functional categories as shown in FIG. 6B; but no other genes normally associated with a productive immune response. […] To validate the array data, expression of 15 of the 18 genes were evaluated by quantitative real-time RT-PCR, and in every case ionomycin-mediated induction was confirmed (see numbers within panels of FIG. 6B). […]

[2] = primary Th1 cells, pretreatment, subsequent stimulation with antigen

C[C@H](CCC(=O)O)C[C@H](C)C[C@H](C)C(=O)/C=C(\O)[C@H](C)C[C@H](C)C/C=C/[C@@H](C)[C@@H](O)[C@@H](C)[C@@H](O)C[C@@H]1CC[C@@](C)([C@H]2CC[C@@](C)([C@@H](C)O)O2)O1 [Ionomycin, ionomycin]
caspase-3 protein (procaspase 3, p20 and active p17 forms) (caspase-3; ionomycin-treated T cells, 6 h to 16-18 h): induced at the protein level and activated | cleavage of Vav-1, Gads and PKC-theta (caspase-3; treated D5 cells, Western blots): minor cleavage | subsequent proliferative response to antigen or anti-CD3 (D5 T cells): greatly diminished | induction of IL-2 and IFN-γ mRNA (Th1 cells; NFAT1−/− Th1 cells, after pretreatment): perceptible induction | effect on Fas-L mRNA (Th1 cells; [2]): less effect | induction of IL-2, IFN-γ, IL-10, TNF-α and MIP-1α mRNAs (Th1 cells; [2]): pronounced decrease | induction of L-2 and IFN-γ mRNA (Th1 cells; wildtype DO11.10 Th1 T cells, pretreatment): markedly decreased | AP-1 or NFκB DNA-binding activity [1]: no increase | NFAT DNA-binding activity [1]: increased | induction of Grg4, Ikaros, PTP-1B and GBP-3 (D5 and Th1 cells; compared to PMA/ionomycin): more strongly induced | induction of Rab-10 (D5 and Th1 cells; early times): markedly induced | induction of jumonji, CD98 and FasL (D5 and Th1 cells; ionomycin versus PMA/ionomycin): similarly induced
